Data set [1] concerns E. coli. The experiment in a line: Light-activated killing of bacteria (E. coli). Type of data set: cell-based. Particulars: for light-activated killing of bacteria: E. coli; for anti-bacterial activity using cool white light: LuzChem "cool white" light. From the text: No killing of bacteria in the dark has yet been observed.
Compound E was applied to a wet wipe surface and also to the surface of a filter for filtration of air or water.

The subject of data set [2] is mammal models. As to conditions: in vivo.

SMILES strings stand for the structures.

As for `Cn1cc[n+](CCCOc2ccc(C#Cc3ccc(C#Cc4ccc(OCCC[n+]5ccn(C)c5)cc4)cc3)cc2)c1` [Compound D], in data set [1], the “light-activated killing of bacteria” value was “excellent” and the “anti-bacterial activity using cool white light” value is “excellent anti-bacterial activity”. Besides, the “relative reactivity in bacterial killing” value in data set [1] (light-activated) was “more reactive than Compound E”.
As to `Cn1cc[n+](CCCCc2ccc(C#Cc3ccc(C#Cc4ccc(OCCC[n+]5ccn(C)c5)cc4)s3)cc2)c1` [Compound E], in data set [1], the “light-activated killing of bacteria” value is given as “excellent” and the “anti-bacterial activity using cool white light” value is recorded as “excellent anti-bacterial activity”. Besides, the “light-activated killing on surfaces” value in data set [1] (applied to wet wipe surface and filter surface for air or water) is recorded as “strong light-activated killing”. Also, the “killing of bacteria in the dark” value in data set [1] (dark) is on record as “No killing”. Also, the “activity when surface immersed in E. Coli suspension” value in data set [1] (wet wipe / filter surface immersed in suspension of E. Coli) is recorded as “activity was retained”. The “toxicity against mammal models” value in data set [2] is recorded as “no toxicity”.

The record behind these values is patent US20230263918A1, “ANTIVIRAL METHODS AND COMPOSITIONS” (priority 2020, published 2023).
